Test results taken from US8388960B2, “Elimination of heterogeneous or mixed cell population in tumors” (priority 2005, dated 2013).

Key:
[1] = test system: COLO 205 cells; assay: Cell cycle studies (G2/M arrest, DNA content by FACS) in COLO 205 cells; type: cell-based, human
Experimental: Exponentially growing COLO 205 cells were resuspended at 1-2×10^5 cells/mL before drug or conjugate treatment. […] DNA content analysis was performed using FACSCalibur (Becton Dickinson, San Jose, Calif.). 10,000 events per sample were collected, and FL2-A histograms generated for each sample. The cell cycle analysis software, ModFit LT 3.1 (Verity Software House, Topsham, Me.) was used to determine the percentage of cells in different phases of the cell cycle.
Samples of asynchronously growing cells were exposed to conjugate (3 nM), or DM1-SMe (10 nM see FIG. 16 for structure), or nocodazole (0.66 μM) another inhibitor of microtubule polymerization, at 37° C. for 20 h and the DNA content of the cells was then analyzed by flow cytometry.
COLO 205 cells were first synchronized with a 24-hr treatment of aphidicolin, a reversible DNA replication inhibitor that blocks cells in S phase (Ikegami S. et al., Nature, 275, 458-460 ((1978)). Since the majority of the asynchronous population of COLO 205 cells were in G1 phase, most of the aphidicolin-treated cells arrested in the beginning of S phase, which cannot be distinguished from G1 phase in the FACS analysis (FIG. 11B, top picture). The synchronized cells were then released from the arrest by the removal of aphidicolin, and either left untreated, or treated with DM1-SMe or with either conjugate.

[2] = single intravenous dose of 12.5 μg/kg; cited from earlier work
[3] = Thiol-disulfide interchange of DM4 in RPMI 1640 medium; settings: buffer
Experimental: To further test whether any of the metabolites in the media was a disulfide compound, a cell supernatant sample from a 26-hour exposure was divided into two equal portions of which one was subjected directly to chromatography, and the other portion was treated with DTT and selenol before chromatography to reduce all disulfide bonds (18).

[4] = test system: antigen-positive COLO 205 cells; assay: MTT-based cytotoxicity assay, COLO 205 cells (Example 2); type: cell-based, human; settings: conjugates 4-day exposure
Experimental: (§1) The anti-tumor activity of the two conjugates was assessed in SCID mice bearing subcutaneous HT-29 or COLO 205 tumors (both CanAg-positive human colon adenocarcinoma).
(§2) The two major metabolites, S-methyl-DM4 and lysine-N^ε—SMCC-DM1, were synthesized and tested for their in vitro cytotoxicity against COLO 205 cells and Namalwa cells.

[5] = test system: antigen-negative Namalwa cells; assay: MTT-based cytotoxicity assay, Namalwa cells (Example 2); type: cell-based, human; settings: free maytansinoids
Experimental: as §1, §2

For `CO/C1=C\C(C)=C\[C@@H](C)[C@@H](O)[C@@H](C)C/C(C)=C/C=C/[C@H](OC)[C@@H]([C@@H](C)[C@@H](O)[C@H](C)[C@@]2(O)C[C@@H](O)[C@H](C)[C@@H](C(C)C)O2)OC1=O` [BafA1, Bafilomycin A1, reference compound], the “distribution of cells between the phases of the cell cycle” value ([1]; BafA1 alone) was “did not significantly alter the distribution of cells”.

For `COc1c(O)c2c(c3cc(C(=O)N4CCc5c4c(O)c(OC)c4[nH]c(C(=O)N6CC7CC78C6=CC(=O)c6[nH]cc(C)c68)cc54)[nH]c13)CCN2C(N)=O` (stereo not drawn) [CC-1065], the “toxicity after administration to mice” value [2] is given as “delayed hepatotoxicity leading to mortality on day 50”.

In the case of `COc1cc2cc(c1Cl)N(C)C(=O)C[C@H](OC(=O)[C@H](C)N(C)C(=O)CCSSC)[C@]1(C)O[C@H]1[C@H](C)[C@@H]1C[C@@](O)(NC(=O)O1)[C@H](OC)/C=C/C=C(\C)C2` [DM1-SMe, N^2′-deacetyl-N^2′-[(3-methyldithio)-1-oxopropyl]-maytansine], the “cells in G2 in the presence of chloroquine” value ([1]; 20 h, 30 μM chloroquine, 10^−8 M DM1-SMe, 3×10^−9 M huC242-SMCC-DM1) is reported as 51% and the “cells in G2/M phase after release from aphidicolin” value ([1]; synchronized cells, after 10 h and after 18 h) is reported as 75% to 85%.

With `COc1cc2cc(c1Cl)N(C)C(=O)CC(OC(=O)C(C)N(C)C(=O)CCC(C)(C)S)C1(C)OC1C(C)C1CC(O)(NC(=O)O1)C(OC)/C=C/C=C(\C)C2` (stereo not drawn) [DM4, N^2′-deacetyl-N-^2′(4-methyl-4-mercapto-1-oxopentyl)-maytansine] the half-life [3] was less than 1 h.

`COc1cc2cc(c1Cl)N(C)C(=O)C[C@H](OC(=O)[C@H](C)N(C)C(=O)CCC(C)(C)SC)[C@]1(C)O[C@H]1[C@H](C)[C@@H]1C[C@@](O)(NC(=O)O1)[C@H](OC)/C=C/C=C(\C)C2` [S-methyl-DM4, N^2′-deacetyl-N^2′-(4-methylthio-4-methyl-1-oxopentyl)-maytansine] showed an IC50 [4] of 0.002 nM and an IC50 [5] of 0.002 nM.

In the case of `COc1cc2cc(c1Cl)N(C)C(=O)C[C@H](OC(=O)[C@H](C)N(C)C(C)=O)[C@]1(C)O[C@H]1[C@H](C)[C@@H]1C[C@@](O)(NC(=O)O1)[C@H](OC)/C=C/C=C(\C)C2` [maytansine, reference compound], the IC50 ([4]; Homo sapiens, COLO 205, 96 h) is reported as 0.03 to 0.06 nM and the IC50 ([5]; Homo sapiens) is reported as 0.03 to 0.06 nM.
